Data on ten molecules can be found in patent US20250084039A1, “4-SUBSTITUTED AMINOISOQUINOLINE DERIVATIVES” (Purdue Research Foundation, priority 2016, published 2025).

In general, Kd refers to a measure of binding affinity in units of concentration.

Assay [1] concerns MV4-11. Kind of assay: Proliferation inhibition screen at 100 nM. It is filed as cell-based. The conditions noted are these: 100 nM compound, FIG. 10. How it is done:
To determine inhibition at 100 nM or […], 96-well plates were seeded the afternoon before treatment. Plates were then treated with compound diluted in dimethyl sulfoxide (DMSO) as well as a DMSO control the following day for 72 hours. After this time the plates were then treated with 10 μL of CellTiter-Blue Cell Viability Assay (Promega, Madison, WI) for 4 hours. Then the plates were read on a plate reader (Bio-Tek, Winooski, VT). Data was analyzed on Excel as a percent of the DMSO vehicle.
From these cell proliferation studies, MV4-11 appeared to be more sensitive to the compounds than the other cell lines (Table 6A). […] To identify group of compounds potently inhibiting cancer cell proliferation, a lower concentration of compounds (100 nM) were used to screen against MV4-11 (FIG. 10). From these experiments, potent amide compounds A7, A10, A15, A16, A18, A20, B15 and D30 (as indicated by ***, FIG. 10) were selected. […] Typically amides that contain basic amines are included in compound libraries to improve aqueous solubility but it appears that the presence of a basic amine in the side chain of the compounds also facilitated the actual inhibition of MV4-11 proliferation.

A further assay addresses RET (Homo sapiens (Human), UniProt P07949). In words: Reaction Biology HotSpot kinase assay. It counts as biochemical. The conditions noted are these: 500 nM compound; read-out: Percentage kinase inhibition RET. Here is the method:
(§1) The Reaction Biology Corporation (www.reactionbiology.com, Malvern, PA) HotSpot assay platform was used to measure kinase/inhibitor interactions exactly as previously described. Kinase and substrate were mixed in a buffer containing 20 mM HEPES pH 7.5, 10 mM MgCl2, 1 mM EGTA, 0.02% Brij35, 0.02 mg/mL BSA, 0.1 mM Na3VO4, 2 mM DTT and 1% DMSO. Single-dose of compounds (500 nM) were then added to each reaction mixture. After 20-minute incubation. ATP (Sigma) and [γ-^33P] ATP (Perkin Elmer) were added at a final total concentration of 100 μM for addition 2 hours at room temperature, followed by spotting onto P81 ion exchange cellulose chromatography paper (Whatman, Inc.). […] Percent remaining kinase activity of a vehicle (DMSO) containing kinase reaction was calculated for each kinase/inhibitor pair using Prism 5 (GraphPad).
as §1, with “1” for “DTT”, “incubation,” for “incubation.”

In another assay the target is FGFR1 (Homo sapiens (Human), UniProt P11362). Kind of assay: Reaction Biology HotSpot kinase assay. It is filed as biochemical. To be noted: 500 nM compound; read-out: Percentage kinase inhibition FGFR1. How it is done:
as §1
as §1, with “1” for “DTT”, “incubation,” for “incubation.”

The target in a further assay is FLT3 (Homo sapiens (Human), UniProt P36888). Kind of assay: Reaction Biology HotSpot kinase assay. To be noted: 500 nM compound; for inhibition at 0.5 µM: read-out: % inhibition of FLT3 activity. It is filed as biochemical. How it is done: as §1
Sequence of FLT3 (P36888 27-993): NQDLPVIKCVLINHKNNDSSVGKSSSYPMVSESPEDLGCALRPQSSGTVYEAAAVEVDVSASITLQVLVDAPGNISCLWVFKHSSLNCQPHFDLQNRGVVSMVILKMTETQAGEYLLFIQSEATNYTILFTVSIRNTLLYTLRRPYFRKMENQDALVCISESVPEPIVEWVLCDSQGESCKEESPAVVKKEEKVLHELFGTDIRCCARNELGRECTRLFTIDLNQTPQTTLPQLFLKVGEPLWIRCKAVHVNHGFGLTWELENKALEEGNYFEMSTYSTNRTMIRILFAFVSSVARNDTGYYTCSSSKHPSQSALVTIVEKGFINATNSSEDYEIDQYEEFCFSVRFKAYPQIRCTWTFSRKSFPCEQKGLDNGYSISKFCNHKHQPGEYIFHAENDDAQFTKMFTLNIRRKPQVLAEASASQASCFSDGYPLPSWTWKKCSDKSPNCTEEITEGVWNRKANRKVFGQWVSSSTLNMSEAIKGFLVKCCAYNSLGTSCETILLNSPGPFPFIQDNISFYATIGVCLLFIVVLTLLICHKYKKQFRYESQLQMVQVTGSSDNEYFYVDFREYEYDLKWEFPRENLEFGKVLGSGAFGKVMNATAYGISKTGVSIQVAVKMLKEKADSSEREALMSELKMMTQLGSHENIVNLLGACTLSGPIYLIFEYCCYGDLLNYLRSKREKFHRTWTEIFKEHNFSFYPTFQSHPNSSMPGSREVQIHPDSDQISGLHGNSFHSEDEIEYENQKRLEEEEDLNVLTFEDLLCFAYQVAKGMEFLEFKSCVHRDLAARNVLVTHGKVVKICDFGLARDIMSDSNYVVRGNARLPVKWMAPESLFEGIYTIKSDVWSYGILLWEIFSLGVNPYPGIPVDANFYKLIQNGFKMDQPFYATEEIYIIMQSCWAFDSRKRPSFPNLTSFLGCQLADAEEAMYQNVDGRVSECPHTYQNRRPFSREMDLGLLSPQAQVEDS
as §1, with “1” for “DTT”, “incubation,” for “incubation.”

The next assay deals with TRKC (Homo sapiens (Human), UniProt Q16288). Kind of assay: Reaction Biology HotSpot kinase assay. It is filed as biochemical. To be noted: 500 nM compound, 100 μM radiolabeled ATP. How it is done:
as §1
as §1, with “1” for “DTT”, “incubation,” for “incubation.”

The next assay addresses c-Src (Homo sapiens (Human), UniProt P12931). In words: Reaction Biology HotSpot kinase assay. It is filed as biochemical. To be noted: 500 nM compound; read-out: Percentage kinase inhibition c-Src. How it is done: as §1
as §1, with “1” for “DTT”, “incubation,” for “incubation.”

The next assay has as its target c-kit (Homo sapiens (Human), UniProt P10721). In words: Reaction Biology HotSpot kinase assay. It counts as biochemical. The conditions noted are these: 500 nM compound, 100 μM radiolabeled ATP. How it is done: as §1
as §1, with “1” for “DTT”, “incubation,” for “incubation.”

For a further assay, the system named is HCT116. Kind of assay: Proliferation inhibition at single concentration (CellTiter-Blue). It counts as cell-based. The conditions noted are these: Homo sapiens, HCT-116; 1 μM compound; read-out: Percent inhibition of proliferation HCT116. On the technique in general: Resazurin is reduced to fluorescent resorufin, in cell work by metabolically active cells.
In another assay the test system is K562. In words: IC50 proliferation assay (Alamar Blue, 72 h). It is filed as cell-based. To be noted: Homo sapiens. How it is done: (§2) IC50 proliferation assay—Cell lines and primary cells were seeded into 96-well plates the afternoon prior to treatment. Approximately 18 hours later, compounds were semi-serially diluted in dimethyl sulfoxide (DMSO) and then growth medium, and added to cells. Plates were incubated for 72 hours prior to addition of Alamar Blue (Life Technologies, Carlsbad, CA). Plates were read after 4 additional hours of incubation at 37° C. using a Bio-Tek Synergy HT plate reader (Bio-Tek, Winooski, VT). Data was analyzed and graphed using GraphPad Prism Software (Graphpad, La Jolla. CA).
(§3) IC50 (proliferation inhibition) against leukemia cell lines MV4-11 and K562. […] MiaPaca-2 (Pancreatic cell line), HLY-1 (Lymphoma cell line), MV4-11 (AML, cell line) and K562 (CML cell line).

Assay [2] deals with MV4-11. Kind of assay: IC50 proliferation assay (Alamar Blue, 72 h). It is filed as cell-based. The conditions noted are these: Homo sapiens, MV4-11, 72 h; read-out: IC50 (proliferation inhibition) Cell line - MV4-11. Here is the method:
as §2, §3

Another assay has as its system HeLa. In words: Proliferation inhibition at single concentration (CellTiter-Blue). It is filed as cell-based. The conditions noted are these: Homo sapiens, HeLa; 1 μM compound; read-out: Percent inhibition of proliferation HeLa.
Another assay relates to MCF-7. Described as above. It counts as cell-based. To be noted: Homo sapiens, MCF7; 1 μM compound; read-out: Percent inhibition of proliferation MCF-7.
For the next assay, the system named is MV-4-11. The description is as above. It is filed as cell-based. To be noted: Homo sapiens, MV4-11; 1 μM compound; read-out: Percent inhibition of proliferation MV-4-11.
For assay [3], the system named is MV4-11. Kind of assay: IC50 determination (proliferation assay, CellTiter-Blue). It is filed as cell-based. The conditions noted are these: for IC50: Homo sapiens, MV4-11. How it is done:
(§4) Cell lines were seeded into 96-well plates the afternoon prior to treatment. Approximately 18 hours later, compounds were diluted in dimethyl sulfoxide (DMSO) and added to cells. Plates were incubated for 72 hours and cells viability determined with CellTiter-Blue Cell Viability Assay (Promega, Madison, WI). Plates were read after 4 additional hours of incubation at 37° C. using plate reader (Bio-Tek, Winooski. VT). Data was analyzed and graphed using GraphPad Prism Software (Graphpad. La Jolla, CA). […]

Assay [4] deals with MOLM14. The assay is described as above. It counts as cell-based. To be noted: Homo sapiens, MOLM-14. Here is the method:
as §4

The next assay relates to NCI H1703 (NSCLC). Kind of assay: Activity against lung cancer cell line. It counts as cell-based. To be noted: Homo sapiens, NCI-H1703.
The next assay addresses FLT3 (ITD) (Homo sapiens, UniProt P36888, ITD). In words: DiscoverX Kd Elect binding. The conditions noted are these: read-out: Kd FLT3 (ITD). An excerpt:
Although the current drugs on the market or in clinical trials are relatively successful in killing the AML leukemia cells, they currently are unable to deal with secondary mutations that occur after TKI treatment, such as FLT3 ([…]).

The next assay has as its target FLT3 (ITD, F691L) (Homo sapiens, UniProt P36888, F691L/ITD). In words: DiscoverX Kd Elect binding. To be noted: read-out: Kd FLT3 (ITD, F691L).
Assay [5] has as its system MV4-11. Kind of assay: Anti-proliferative effects in leukemia panel. It is filed as cell-based. The conditions noted are these: Homo sapiens, MV4-11; read-out: Anti-proliferative effects in leukemia panel (μM) MV4-11. Here is the method:
Molm-14 cells were the kind gift of Dr. Mark Levis from Johns Hopkins University. […] Cell lines were grown and maintained according to ATCC recommendations.
(§5) Cell lines were seeded into 96-well plates the afternoon prior to treatment. Approximately 18 hours later, compounds were semi-serially diluted in dimethyl sulfoxide (DMSO) and then growth medium, and added to cells. Plates were incubated for 72 hours prior to addition of Alamar Blue (Life Technologies. Carlsbad, CA). Plates were read after 4 additional hours of incubation at 37° C. using a Bio-Tek Synergy HT plate reader (Bio-Tek, Winooski. VT). Data was analyzed and graphed using GraphPad Prism Software (Graphpad. La Jolla, CA).

Assay [6] concerns MOLM14. In words: Anti-proliferative effects in leukemia panel. It counts as cell-based. To be noted: Homo sapiens, MOLM-14. Here is the method: (§6) Molm-14 cells were the kind gift of Dr. Mark Levis from Johns Hopkins University. THP-1, MV4-11, K-562 and MRC-5A cells were purchased from ATCC (ATCC, Manassas, VA). All cell lines were grown in 37° C. with 5% CO2 atmosphere with RPMI 1640 (Life technologies, Carlsbad. CA) supplemented with heat-inactivated 10% (V/V) fetal bovine serum. Cell lines were grown and maintained according to ATCC recommendations.
as §5

Another assay concerns K-562. Kind of assay: Anti-proliferative effects in leukemia panel. It counts as cell-based. To be noted: Homo sapiens, K562. Here is the method:
as §6, §5

A further assay deals with THP-1. Kind of assay: Anti-proliferative effects in leukemia panel. It counts as cell-based. The conditions noted are these: Homo sapiens. How it is done:
as §6, §5

The mark [7] stands for this setting: K562, 72 h, read-out: IC50 (proliferation inhibition) Cell line - K562.
Setting [8] is: K562, Table 18, read-out: Inhibition of proliferation of K562 cell lines (CML).

Read-outs that look alike come from different tables or passages of the source.

Sequence of c-kit (P10721 26-976): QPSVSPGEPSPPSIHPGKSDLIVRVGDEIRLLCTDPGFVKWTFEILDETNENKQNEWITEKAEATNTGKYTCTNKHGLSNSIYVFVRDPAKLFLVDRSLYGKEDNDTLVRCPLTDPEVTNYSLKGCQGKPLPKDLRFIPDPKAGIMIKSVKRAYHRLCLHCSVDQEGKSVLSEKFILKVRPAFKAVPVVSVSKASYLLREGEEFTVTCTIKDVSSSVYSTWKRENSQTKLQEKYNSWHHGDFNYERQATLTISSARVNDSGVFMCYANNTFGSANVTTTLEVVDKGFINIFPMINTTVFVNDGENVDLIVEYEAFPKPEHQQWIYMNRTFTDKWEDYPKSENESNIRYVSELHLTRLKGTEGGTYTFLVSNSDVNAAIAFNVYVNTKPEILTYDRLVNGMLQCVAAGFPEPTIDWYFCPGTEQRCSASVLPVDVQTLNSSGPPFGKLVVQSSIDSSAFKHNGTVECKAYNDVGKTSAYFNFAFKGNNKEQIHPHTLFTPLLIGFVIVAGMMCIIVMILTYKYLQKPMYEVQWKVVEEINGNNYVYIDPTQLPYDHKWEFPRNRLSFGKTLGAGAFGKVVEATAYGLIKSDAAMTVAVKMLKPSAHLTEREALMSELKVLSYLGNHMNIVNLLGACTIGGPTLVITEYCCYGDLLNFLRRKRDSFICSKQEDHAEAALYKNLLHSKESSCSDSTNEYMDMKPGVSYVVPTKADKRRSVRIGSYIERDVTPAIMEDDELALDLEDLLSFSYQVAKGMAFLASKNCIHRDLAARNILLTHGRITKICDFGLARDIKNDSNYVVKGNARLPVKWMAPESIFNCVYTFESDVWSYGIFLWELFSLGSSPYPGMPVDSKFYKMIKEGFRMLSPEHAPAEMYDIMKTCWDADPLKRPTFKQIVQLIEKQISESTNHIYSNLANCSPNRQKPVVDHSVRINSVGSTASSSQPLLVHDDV
Sequence of RET (P07949 29-1114): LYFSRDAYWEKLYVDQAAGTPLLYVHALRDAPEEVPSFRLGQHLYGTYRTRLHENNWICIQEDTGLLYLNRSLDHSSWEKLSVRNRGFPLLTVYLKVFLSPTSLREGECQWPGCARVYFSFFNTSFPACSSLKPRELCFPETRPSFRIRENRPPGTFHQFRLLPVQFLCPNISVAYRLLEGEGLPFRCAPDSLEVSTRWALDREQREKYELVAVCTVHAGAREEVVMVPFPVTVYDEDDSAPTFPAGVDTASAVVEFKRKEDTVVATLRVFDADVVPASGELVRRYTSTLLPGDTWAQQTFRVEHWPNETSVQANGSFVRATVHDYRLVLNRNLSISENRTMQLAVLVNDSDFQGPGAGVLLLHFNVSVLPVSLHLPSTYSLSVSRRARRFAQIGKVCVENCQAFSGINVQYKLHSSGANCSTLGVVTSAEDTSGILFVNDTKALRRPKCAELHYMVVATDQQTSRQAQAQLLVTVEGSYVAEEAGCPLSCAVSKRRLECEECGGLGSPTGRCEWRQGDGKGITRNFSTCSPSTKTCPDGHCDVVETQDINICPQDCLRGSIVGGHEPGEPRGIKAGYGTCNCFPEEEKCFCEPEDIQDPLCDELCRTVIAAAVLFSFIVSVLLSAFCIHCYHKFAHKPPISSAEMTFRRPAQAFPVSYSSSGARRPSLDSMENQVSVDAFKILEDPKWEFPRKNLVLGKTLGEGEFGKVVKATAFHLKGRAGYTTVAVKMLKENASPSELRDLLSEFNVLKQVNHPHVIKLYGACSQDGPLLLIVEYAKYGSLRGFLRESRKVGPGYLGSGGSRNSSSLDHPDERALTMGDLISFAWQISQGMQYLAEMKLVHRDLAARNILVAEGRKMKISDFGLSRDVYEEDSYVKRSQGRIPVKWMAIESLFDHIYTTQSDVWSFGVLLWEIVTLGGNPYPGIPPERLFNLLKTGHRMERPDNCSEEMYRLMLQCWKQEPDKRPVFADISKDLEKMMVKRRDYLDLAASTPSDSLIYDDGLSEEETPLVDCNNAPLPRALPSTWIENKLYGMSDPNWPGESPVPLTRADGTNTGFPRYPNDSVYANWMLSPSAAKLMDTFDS
Sequence of TRKC (Q16288 32-839): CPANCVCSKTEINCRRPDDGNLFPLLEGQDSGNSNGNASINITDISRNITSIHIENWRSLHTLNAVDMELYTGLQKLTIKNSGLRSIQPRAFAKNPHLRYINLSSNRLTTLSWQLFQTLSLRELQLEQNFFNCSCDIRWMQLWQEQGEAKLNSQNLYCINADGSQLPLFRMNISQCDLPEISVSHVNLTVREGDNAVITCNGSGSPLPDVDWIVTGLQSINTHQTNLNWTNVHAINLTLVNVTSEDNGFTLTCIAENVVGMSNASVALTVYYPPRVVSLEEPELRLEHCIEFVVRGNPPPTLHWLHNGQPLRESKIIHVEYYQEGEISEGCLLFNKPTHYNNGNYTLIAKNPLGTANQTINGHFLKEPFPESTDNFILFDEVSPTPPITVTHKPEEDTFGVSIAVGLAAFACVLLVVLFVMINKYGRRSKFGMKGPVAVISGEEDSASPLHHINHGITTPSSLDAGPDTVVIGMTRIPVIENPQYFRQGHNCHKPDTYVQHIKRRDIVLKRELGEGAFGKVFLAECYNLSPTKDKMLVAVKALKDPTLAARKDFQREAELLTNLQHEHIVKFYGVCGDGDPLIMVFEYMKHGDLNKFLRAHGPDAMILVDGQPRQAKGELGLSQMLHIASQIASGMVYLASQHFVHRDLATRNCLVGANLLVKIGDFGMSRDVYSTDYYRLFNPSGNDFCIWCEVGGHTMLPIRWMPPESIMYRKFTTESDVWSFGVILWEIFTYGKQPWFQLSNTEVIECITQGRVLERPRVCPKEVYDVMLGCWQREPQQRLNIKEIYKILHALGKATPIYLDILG
Sequence of FGFR1 (P11362 22-822): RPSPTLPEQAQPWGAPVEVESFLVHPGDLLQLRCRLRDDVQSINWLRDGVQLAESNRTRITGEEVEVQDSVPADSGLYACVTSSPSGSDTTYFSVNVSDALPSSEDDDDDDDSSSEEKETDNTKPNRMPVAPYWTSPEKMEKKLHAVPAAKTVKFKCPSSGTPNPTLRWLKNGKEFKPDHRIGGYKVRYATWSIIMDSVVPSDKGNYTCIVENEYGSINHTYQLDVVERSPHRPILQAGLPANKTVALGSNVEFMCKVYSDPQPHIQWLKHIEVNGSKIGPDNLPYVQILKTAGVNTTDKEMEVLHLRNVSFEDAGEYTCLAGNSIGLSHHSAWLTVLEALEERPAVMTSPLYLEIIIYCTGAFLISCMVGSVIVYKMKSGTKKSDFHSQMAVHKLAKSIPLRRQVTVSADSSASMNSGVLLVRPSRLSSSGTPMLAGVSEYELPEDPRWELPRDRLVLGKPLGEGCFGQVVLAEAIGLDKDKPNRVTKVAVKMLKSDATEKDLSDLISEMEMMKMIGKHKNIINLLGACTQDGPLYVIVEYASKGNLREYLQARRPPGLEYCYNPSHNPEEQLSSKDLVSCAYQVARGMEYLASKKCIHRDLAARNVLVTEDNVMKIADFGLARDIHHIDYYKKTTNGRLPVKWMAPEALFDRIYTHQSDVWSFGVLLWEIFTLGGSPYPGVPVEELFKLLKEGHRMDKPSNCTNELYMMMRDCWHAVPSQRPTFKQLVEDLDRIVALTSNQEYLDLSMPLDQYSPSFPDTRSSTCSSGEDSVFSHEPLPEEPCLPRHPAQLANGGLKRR

In the case of `CCN(CC)CC(O)CNC(=O)c1ccc(C#Cc2c(N)ncc3ccc(Cl)cc23)cc1` (centres unmarked) [Compound A16], the “inhibition of MV4-11 proliferation in words” value in the assay with MV4-11 [1] is recorded as “potent”.
As to `Nc1ncc2ccc(Cl)cc2c1C#Cc1ccc(C(=O)NCCCN2CCCCC2)cc1` [Compound A10], in the assay with MV4-11 [1], the “inhibition of MV4-11 proliferation in words” value is recorded as “potent”.
On the same count and under the same terms, in the case of `COCCCNC(=O)c1ccc(C#Cc2c(N)ncc3ccc(Cl)cc23)cc1` [Compound A25] it was “inactive”.
On to `Cc1ccc(C(=O)NCCN2CCCCC2)cc1C#Cc1c(N)ncc2ccc(Cl)cc12` [HSN248], for which the inhibition at 0.5 µM on RET is 52%; on FGFR1 it was 9%; on FLT3, 73%; against TRKC, 83%; on c-Src, 23%; at c-kit, 93%. The inhibition at 1 µM is 76% in the assay on HCT116, 100% in the assay on HeLa, 100% with MCF-7 and 98% with MV-4-11. Besides, the IC50 stood at 7 nM with K562 (setting [7]); 7 ± 0.1 nM in the assay on K562 (setting [8]); 225 nM in the assay on MV4-11 [2]; 181 ± 6.5 nM with MV4-11 [3]; 180 ± 7.8 nM with MOLM14 [4]. Further, the “proliferation inhibition in words, MV4-11 / AML” value in the assay with MV4-11 [3] is “only moderate inhibitors”.
Regarding `CCN(CC)CCNC(=O)c1ccc(C)c(C#Cc2c(N)ncc3ccc(Cl)cc23)c1` [HSN247], the inhibition at 0.5 µM at RET is 3%; on FGFR1, 6%; at FLT3, 74%; on TRKC, 77%; on c-Src, 3%; at c-kit, 86%. Further, the “% inhibition of FLT3 activity” value on FLT3 is given as 75%. Also, the inhibition at 1 µM with HCT116 came out at 54%; in the assay with HeLa, 100%; with MCF-7, 100%; in the assay with MV-4-11 it was 58%. In addition, the IC50 was 25 nM in the assay with K562 (setting [7]); 25.7 ± 0.31 nM in the assay with K562 (setting [8]); 154 nM in the assay with MV4-11 [2]; 154 ± 7.1 nM in the assay with MV4-11 [3]; 129 ± 8.2 nM with MOLM14 [4]. Also, the “proliferation inhibition in words, MV4-11 / AML” value with MV4-11 [3] is “only moderate inhibitors”.
For `Cc1ccc2cnc(N)c(C#Cc3cc(C(=O)Nc4ccc(CN5CCN(C)CC5)c(C(F)(F)F)c4)ccc3C)c2c1` [HSN379, 3-((3-amino-6-methylisoquinolin-4-yl)ethynyl)-4-methyl-N-(4-((4-methylpiperazin-1-yl)methyl)-3-(trifluoromethyl)phenyl)benzamide], the IC50 in the assay on NCI H1703 (NSCLC) came out at 13 nM.
For `CN(C)CC(O)CNC(=O)c1ccc(C#Cc2c(N)ncc3ccc(Cl)cc23)cc1` (centres unmarked) [Compound A15], in the assay with MV4-11 [1], the “inhibition of MV4-11 proliferation in words” value was “potent”.
Regarding `Cc1ncc(C(=O)Nc2ccc(CN3CCN(C)CC3)c(C(F)(F)F)c2)cc1C#Cc1cnc(N)c2ccccc12` [HSN461, 5-((1-aminoisoquinolin-4-yl)ethynyl)-6-methyl-N-(4-((4-methylpiperazin-1-yl)methyl)-3-(trifluoromethyl)phenyl)nicotinamide], the equilibrium dissociation constant (Kd) on FLT3 (ITD) was determined as 7.9 nM; at FLT3 (ITD, F691L), 91 nM. For the same molecule, the IC50 was 157 nM with NCI H1703 (NSCLC) and < 1 nM in the assay on MV4-11 [3].
Consider `N=C(N)c1ccc(/N=N/c2c(N)ncc3ccc(Br)cc23)cc1` [HSW630-1], for which the inhibition at 0.5 µM on c-kit came to 68%. The IC50 in the assay with MV4-11 [5] was 0.15 ± 0.01 µM; with MOLM14 [6], 0.15 ± 0.01 µM; with K-562, 3 µM; in the assay with THP-1, 1.2 µM.
For `Cc1ncc(C(=O)Nc2ccc(CN3CCN(C)CC3)c(C(F)(F)F)c2)cc1C#Cc1cnc(N)c2ncccc12` [HSN459, 5-((8-amino-1,7-naphthyridin-5-yl)ethynyl)-6-methyl-N-(4-((4-methylpiperazin-1-yl)methyl)-3-(trifluoromethyl)phenyl)nicotinamide], the Kd on FLT3 (ITD) came out at 5.6 nM; at FLT3 (ITD, F691L), 17 nM. In the assay with NCI H1703 (NSCLC), the IC50 came to 38 nM.
